Measurements as given in US11059795B2, “Androgen receptor modulators and methods for their use” (ESSA Pharma, Inc., priority 2018, dated 2021).

Legend:
[1] = In vivo pharmacokinetics in plasma after oral gavage (PO) in male CD-1 mice; details: 5 mg/kg PO, Table 4
Method: The purpose of this study is to determine the pharmacokinetics of the tested compounds in plasma, following oral gavage administration (PO) to male CD-1 mice.
Animal Husbandry: Animals were group housed during acclimation and the study. The animal room environment were controlled (target conditions: temperature 18 to 26° C., relative humidity 30 to 70%, 12 hours artificial light and 12 hours dark). Temperature and relative humidity were monitored daily. Animals were fasted at least 12 hours prior to the administration. All animals had access to Certified Rodent Diet ad libitum 4 hours post dosing.
Dose Formulation: prepared 85-100 uL of a stock solution of representative compounds of the disclosure in DMSO at 50 mM; 1.5% v/v of Tween 80 were added and mixed gently; 95.5% v/v saline was added gently to the organic phase. The solution was mixed slowly by reverse pipetting to get a clear solution.
Dose Administration: the dose formulations were administered via oral gavage per facility SOPs. The dose volume were determined by the animals' body weight collected on the morning of dosing day
Sample Collection: blood collection (about 0.05 mL per time point) was performed from saphenous vein of each animal into polypropylene tubes at each timepoints (0, 0.25, 0.5, 1, 2, 4, 8, 12, and 24 hr). All blood samples were transferred into pre-chilled tubes containing 2 μL of K2-EDTA (0.5M) and placed on wet ice until centrifugation. Each collected blood sample was in the wet-ice before centrifugation. Each collected blood was under centrifugation for 15 minutes at 4° C. and 3000 g for plasma collection. Plasma samples were stored in polypropylene tubes, quickly frozen over dry ice and kept at −70±10° C. until LC/MS/MS analysis.
Bioanalytical analysis: A LC-MS/MS method for the quantitative determination of tested compound in biological matrix were developed under non-GLP compliance. A calibration curve with at least 7 non-zero calibration standards were applied for the method including LLOQ.
Plasma concentration versus time data were analyzed by non-compartmental approaches using the Phoenix WinNonlin 6.3 software program. Cl, Vdss, C0, Cmax, Tmax, T^1/2, AUC(0-t), AUC(0-inf), MRT(0-t), MRT(0-inf), % F (oral availability) and graphs of plasma concentration versus time profile were reported.

[2] = Microsomal stability assay, monkey liver microsomes; assay type: in vitro ADME; details: pH 7.4, read-out: Liver microsome T½ (min) Monkey
Method: (§1) Microsomal stability assay is a widely used in vitro model to characterize the metabolic conversion by phase I enzymes, such as cytochrome P450 (CYP) enzymes. Since metabolism is known to be highly variable in different species, microsomal stability assay is commonly run in multiple species. Metabolic stability of testing compound can be evaluated using human, rat, mouse, or other animal liver or intestine microsomes to predict intrinsic clearance.
(§2) The assay was carried out in 96-well microtiter plates at 37° C. Reaction mixtures (25 μL) contained a final concentration of 1 μM test compound, 0.5 mg/mL liver microsomes protein, and 1 mM NADPH and/or 1 mM UDPGA (with alamethicin) in 100 mM potassium phosphate, pH 7.4 buffer with 3 mM MgCl2. The incubation was done with N=1, but duplicate incubation at each time point can be prepared if necessary. At each of the time points (for example, 0, 15, 30, and 60 minutes), 150 μL of quench solution (100% acetonitrile with 0.1% formic acid) with internal standard was transferred to each well. Besides the zero minute controls, mixtures containing the same components except the NADPH can also be prepared as the negative control. Verapamil was included as a positive control to verify assay performance. Plates were sealed, vortexed, and centrifuged at 4° C. for 15 minutes at 4000 rpm. The supernatant is transferred to fresh plates for LC/MS/MS analysis.
(§3) Summarized conditions: [Compound]=[…], [LM]=0.5 mg/mL, [NADPH]=1 mM and/or [UDPGA]=1 mM, Buffer=100 mM Potassium Phosphate, pH 7.4 with 3 mM MgCl2, Time=0, 15, 30, and 60 min, and Temperature=37° C.
(§4) All samples were analyzed on LC/MS/MS using an AB Sciex API 4000 instrument, coupled to a Shimadzu LC-20AD LC Pump system. Analytical samples were separated using a Waters Atlantis T3 dC18 reverse phase HPLC column (20 mm×2.1 mm) at a flow rate of 0.5 mL/min. The mobile phase consisted of 0.1% formic acid in water (solvent A) and 0.1% formic acid in 100% acetonitrile (solvent B).
(§5) The extent of metabolism is calculated as the disappearance of the test compound, compared to the 0-min time incubation. Initial rates are calculated for the compound concentration and used to determine half-life (t½) values and subsequently, the intrinsic clearance (Clint). Clint=(0.693)(1/t½ (min))(g of liver/kg of body weight)(mL incubation/mg of microsomal protein)(45 mg of microsomal protein/g of liver weight)

[3] = Microsomal stability assay, human liver microsomes; assay type: in vitro ADME; details: pH 7.4, read-out: Liver microsome T½ (min) Human
Summary of the method: (§6)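 Compound at 1 μM was incubated at 37° C with 0.5 mg/mL liver microsomes and 1 mM NADPH and/or 1 mM UDPGA (with alamethicin) in 100 mM potassium phosphate pH 7.4, 3 mM MgCl2. Samples were taken at 0, 15, 30 and 60 min and measured by LC/MS/MS. t½ came from compound loss relative to 0 min, and Clint was scaled with 45 mg microsomal protein/g liver.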

[4] = Hepatocyte stability assay, human hepatocytes; assay type: in vitro ADME; details: cryopreserved hepatocytes, read-out: Hepatocytes T½ (min) Human
From the text: The […] of in vitro intrinsic clearance (Clint) for drug candidates in the early discovery stage is common practice in the pharmaceutical industry. The Clint values of drug candidates can help to confirm whether metabolism is the main clearance pathway when it is compared with the total body clearance in vivo. Hepatocytes are among the routinely used in vitro systems for measuring clearance. Hepatocytes have been reported to retain most of the phase I and phase II metabolic activities, and therefore, it is a useful tool to estimate the intrinsic clearance for potential drug candidates.
Metabolic stability of testing compound were be evaluated using human and mouse hepatocytes and can also be use rat, mouse, or other animal hepatocytes to predict intrinsic clearance. Cryopreserved hepatocytes were removed from the liquid nitrogen tank and thawed in a 37° C. water bath. As soon as the cells pulled away from the vial wall, they were decanted into 48 ml of warm HT medium. Cells were centrifuged for four minutes at 420 rpm (50 g). After removing the supernatant, pellet was re-suspended in warm DMEM medium. Cell density was counted by a hemacytometer.
The assay was carried out in 96-well microtiter plates. Compounds were incubated for 0, 60, 120, and 180 minutes at 37° C. with hepatocytes. Reaction mixtures (50 μL) contained a final concentration of 1 μM test compound, 0.5 million cells/mL hepatocytes in the DMEM medium. At each of the time points (for example, 0, 1, 2, and 3 hours), 200 μL of quench solution (100% acetonitrile with 0.1% formic acid) with internal standard was transferred to each well. Midazolam was included as a positive control to verify assay performance. Plates were sealed and centrifuged at 4° C. for 15 minutes at 4000 rpm. The supernatant is transferred to fresh plates for LC/MS/MS analysis.
Summarized conditions (customizable): [Compound]=[…], Positive control: midazolam and/or naloxone, [Hepatocyte]=0.5 million cells/Ml, time=0, 60, 120, and 180 min, t=37° C.
as §4
The extent of metabolism was calculated as the disappearance of the test compound, compared to the 0-min control reaction incubations. Initial rates were calculated for the compound concentration and used to determine t½ values and subsequently, the intrinsic clearance, Clint. Clint=(0.693)(1/t½(min))(mL incubation/million cells)

[5] = Microsomal stability assay, rat liver microsomes; assay type: in vitro ADME; details: pH 7.4, read-out: Liver microsome T½ (min) Rat
Method: as §1, §2, §3, §4, §5

[6] = Microsomal stability assay, mouse liver microsomes; assay type: in vitro ADME; details: pH 7.4; mouse liver microsomes; read-out: Liver microsome T½ (min) Mouse
Summary of the method: as §6

[7] = system: LNCaP tumors; assay: LNCaP xenografts model in castrated male NCG mice; assay type: in vivo; details: Table 4; extrapolated Cmin in efficacy
Method: Tumor growth was measured in male NCG mice bearing LNCaP tumors. Castration was performed when tumors reached ˜100 mm^3 and dosing (60 mg/kg PO qd) started 1 week after castration. […] Individual tumor volume change from baseline measured at the end of the experiment.

[8] = Microsomal stability assay, dog liver microsomes; assay type: in vitro ADME; details: pH 7.4, read-out: Liver microsome T½ (min) Dog
Method: as §1, §2, §3, §4, §5

Cmin at 5 mg/kg PO [1]: 3.80 µM | half-life at 1 μM [2]: > 120 min | half-life at 1 μM [3]: > 120 min | half-life at 1 μM [4]: > 360 min | half-life at 1 μM [5]: > 120 min | half-life at 1 μM [6]: > 120 min | Cmin at 5 mg/kg PO [7]: 22.8 µM | half-life at 1 μM [8]: > 120 min
SMILES: CNC(=O)c1ccc(N2C(=S)N(c3ccc(C#N)c(C(F)(F)F)c3)C(=O)C2(C)C)cc1F [Enzalutamide, enzalutamide, reference compound]
